According to patent US9144239B2, “Macrocyclic picolinamides as fungicides” (DOW AGROSCIENCES LLC, priority 2012, dated 2015):
Where two headings read alike, the source gives them in different places.

Assays:
[1] = system: Puccinia triticina; synonym: Puccinia recondita f. sp. tritici; experiment: Fungicidal activity: wheat brown rust (PUCCRT), wheat seedlings; assay type: in vivo
Experimental: Technical grades of materials were dissolved in acetone, which were then mixed with nine volumes of water containing 110 ppm Triton X-100. The fungicide solutions were applied onto wheat seedlings using an automated booth sprayer to run-off. All sprayed plants were allowed to air dry prior to further handling. Wheat plants (variety Yuma) were grown from seed in a greenhouse in 50% mineral soil/50% soil-less Metro mix until the first leaf was fully emerged, with 7-10 seedlings per pot. These plants were inoculated with an aqueous spore suspension of Septoria tritici either prior to or after fungicide treatments. After inoculation the plants were kept in 100% relative humidity (one day in a dark dew chamber followed by two to three days in a lighted dew chamber at 20° C.) to permit spores to germinate and infect the leaf. The plants were then transferred to a greenhouse set at 20° C. for disease to develop. When disease symptoms were fully expressed on the 1st leaves of untreated plants, infection levels were assessed on a scale of 0 to 100 percent disease severity. Percent disease control was calculated using the ratio of disease severity on treated plants relative to untreated plants. Evaluation of Fungicidal Activity: Wheat Brown Rust (Puccinia […]; Synonym: Puccinia recondita f. Sp. Tritici; Bayer Code PUCCRT) Wheat plants (variety Yuma) were grown from seed in a greenhouse in 50% mineral soil/50% soil-less Metro mix until the first leaf was fully emerged, with 7-10 seedlings per pot. These plants were inoculated with an aqueous spore suspension of Puccinia triticina either prior to or after fungicide treatments. After inoculation the plants were kept in a dark dew room at 22° C. with 100% relative humidity overnight to permit spores to germinate and infect the leaf. The plants were then transferred to a greenhouse set at 24° C. for disease to develop. Fungicide formulation, application and disease assessment followed the procedures as described in the Example A.

[2] = system: Mycosphaerella graminicola; anamorph: Septoria tritici; experiment: Fungicidal activity: leaf blotch of wheat (SEPTTR), wheat seedlings; assay type: in vivo; settings: Zymoseptoria tritici
Experimental: Evaluation of Fungicidal Activity: Leaf Blotch of Wheat (Mycosphaerella Graminicola; Anamorph: Septoria tritici; Bayer Code […]) Technical grades of materials were dissolved in acetone, which were then mixed with nine volumes of water containing 110 ppm Triton X-100. The fungicide solutions were applied onto wheat seedlings using an automated booth sprayer to run-off. All sprayed plants were allowed to air dry prior to further handling. Wheat plants (variety Yuma) were grown from seed in a greenhouse in 50% mineral soil/50% soil-less Metro mix until the first leaf was fully emerged, with 7-10 seedlings per pot. These plants were inoculated with an aqueous spore suspension of Septoria tritici either prior to or after fungicide treatments. After inoculation the plants were kept in 100% relative humidity (one day in a dark dew chamber followed by two to three days in a lighted dew chamber at 20° C.) to permit spores to germinate and infect the leaf. The plants were then transferred to a greenhouse set at 20° C. for disease to develop. When disease symptoms were fully expressed on the 1st leaves of untreated plants, infection levels were assessed on a scale of 0 to 100 percent disease severity. Percent disease control was calculated using the ratio of disease severity on treated plants relative to untreated plants.

[3] = 24 h, 100 ppm, 1 Day Protectant, wheat, read-out: Disease Control PUCCRT 1DP
[4] = 24 h, 100 ppm, 1 Day Protectant, wheat, read-out: Disease Control SEPTTR 1DP
[5] = 72 h, 100 ppm, 3 Day Curative, wheat, read-out: Disease Control SEPTTR 3DC
[6] = 72 h, 100 ppm, 3 Day Curative, wheat, read-out: Disease Control PUCCRT 3DC

Row | Structure (SMILES) | pest or weed control at 100 ppm [1, 3] | pest or weed control at 100 ppm [2, 4] | pest or weed control at 100 ppm [2, 5] | pest or weed control at 100 ppm [1, 6] | pest or weed control at 100 ppm ([1]; 24 h, read-out: Disease Control PUCCRT 1DP) | pest or weed control at 100 ppm ([1]; 72 h, read-out: Disease Control PUCCRT 3DC) | pest or weed control at 100 ppm ([2]; 24 h, read-out: Disease Control SEPTTR 1DP) | pest or weed control at 100 ppm ([2]; 72 h, read-out: Disease Control SEPTTR 3DC)
1 | COc1ccnc(C(=O)N[C@H]2CO[C@@H](C)[C@H](OCC(C)C)[C@@H](OCC(C)C)COC2=O)c1O [Compound 4] | 80 to 100% | 80 to 100% | 80 to 100% | – | – | – | – | –
2 | COc1ccnc(C(=O)N[C@H]2COC[C@H](OCc3ccccc3)[C@@H](OCc3ccccc3)COC2=O)c1O [Compound 5, N-((3S,7S,8S)-7,8-bis(benzyloxy)-2-oxo-1,5-dioxonan-3-yl)-3-hydroxy-4-methoxypicolinamide] | 0 to 80% | 0 to 80% | 0 to 80% | 0 to 80% | – | – | – | –
3 | COc1ccnc(C(=O)N[C@H]2CO[C@@H](C)[C@H](OCC(C)C)[C@@H](OCC(C)C)COC2=O)c1OCOC(=O)C(C)C [Compound 7] | 80 to 100% | 80 to 100% | 80 to 100% | – | – | – | – | –
4 | COc1ccnc(C(=O)N[C@H]2COC[C@H](OCC(C)C)[C@@H](OCC(C)C)COC2=O)c1O [Compound 8] | 0 to 80% | 0 to 80% | 0 to 80% | 80 to 100% | – | – | – | –
5 | C=C(C)CO[C@H]1COC[C@@H](NC(=O)c2nccc(OC)c2O)C(=O)OC[C@@H]1OCC(=C)C [Compound 9] | 0 to 80% | 0 to 80% | 0 to 80% | 0 to 80% | – | – | – | –
6 | COc1ccnc(C(=O)N[C@@H]2COC[C@H](OCC(C)C)[C@@H](OCC(C)C)COC2=O)c1OCOC(C)=O [Compound 14] | 80 to 100% | 0 to 80% | – | 0 to 80% | – | – | – | –
7 | COc1ccnc(C(=O)N[C@H]2COC[C@H](OCC(C)C)[C@@H](OCC(C)C)[C@@H](COCC(C)C)OC2=O)c1O [Compound 15, N-((3S,7S,8R,9R)-7,8-diisobutoxy-9-(isobutoxymethyl)-2-oxo-1,5-dioxonan-3-yl)-3-hydroxy-4-methoxypicolinamide] | – | 0 to 80% | – | 0 to 80% | – | – | – | –
8 | COc1ccnc(C(=O)N[C@@H]2COC[C@H](OCC(C)C)[C@@H](OCC(C)C)[C@@H](COCC(C)C)OC2=O)c1O [Compound 16] | 0 to 80% | 0 to 80% | – | 0 to 80% | – | – | – | –
9 | COc1ccnc(C(=O)N[C@H]2COC[C@H](OCC(C)C)[C@@H](OCC(C)C)[C@@H](COCC(C)C)OC2=O)c1OCOC(C)=O [Compound 17] | 0 to 80% | 0 to 80% | – | 0 to 80% | – | – | – | –
10 | COc1ccnc(C(=O)N[C@@H]2COC[C@H](OCC(C)C)[C@@H](OCC(C)C)[C@@H](COCC(C)C)OC2=O)c1OCOC(C)=O [Compound 18] | 0 to 80% | 0 to 80% | – | 0 to 80% | – | – | – | –
11 | CC[C@H]1OC(=O)[C@@H](NC(=O)c2nccc(OC)c2O)COC[C@H](OCC(C)C)[C@H]1OCC(C)C [Compound 19, N-((3S,7S,8S,9R)-9-ethyl-7,8-diisobutoxy-2-oxo-1,5-dioxonan-3-yl)-3-hydroxy-4-methoxypicolinamide] | – | 0 to 80% | 0 to 80% | – | – | – | – | –
12 | CC[C@H]1OC(=O)[C@@H](NC(=O)c2nccc(OC)c2OCOC(C)=O)COC[C@H](OCC(C)C)[C@H]1OCC(C)C [Compound 20] | – | 0 to 80% | 0 to 80% | – | – | – | – | –
13 | CC[C@H]1OC(=O)[C@H](NC(=O)c2nccc(OC)c2O)COC[C@H](OCC(C)C)[C@H]1OCC(C)C [Compound 22] | – | 0 to 80% | 0 to 80% | – | – | – | – | –
14 | CC[C@@H]1OC(=O)[C@@H](NC(=O)c2nccc(OC)c2OCOC(C)=O)COC[C@H](OCC(C)C)[C@H]1OCC(C)C [Compound 23] | 80 to 100% | 80 to 100% | 80 to 100% | 80 to 100% | – | – | – | –
15 | CC[C@H]1OC(=O)[C@H](NC(=O)c2nccc(OC)c2OCOC(C)=O)COC[C@H](OCC(C)C)[C@H]1OCC(C)C [Compound 24] | 0 to 80% | 0 to 80% | 0 to 80% | 0 to 80% | – | – | – | –
16 | COc1ccnc(C(=O)N[C@H]2CO[C@@H](C)[C@H](OCc3ccccc3)[C@@H](OCc3ccccc3)[C@H](C)OC2=O)c1O [Compound 25] | 80 to 100% | 80 to 100% | 0 to 80% | 0 to 80% | – | – | – | –
17 | COc1ccnc(C(=O)N[C@H]2CO[C@H](C)[C@H]3OC(C)(C)O[C@@H]3[C@@H](C)OC2=O)c1O [Compound 27] | 0 to 80% | 0 to 80% | 0 to 80% | 0 to 80% | – | – | – | –
18 | COc1ccnc(C(=O)N[C@H]2CO[C@@H](C)C(OCc3ccccc3)C(OCc3ccccc3)[C@H](C)OC2=O)c1OCOC(C)=O (some centres unmarked) [Compound 28] | 80 to 100% | 80 to 100% | 80 to 100% | 80 to 100% | – | – | – | –
19 | COc1ccnc(C(=O)N[C@H]2CO[C@H](C)[C@H]3OC(C)(C)O[C@@H]3[C@@H](C)OC2=O)c1OCOC(C)=O [Compound 29] | 0 to 80% | 0 to 80% | 0 to 80% | 0 to 80% | – | – | – | –
20 | COc1ccnc(C(=O)N[C@@H]2COC[C@H](OCc3ccccc3)[C@@H](OCc3ccccc3)[C@@H](C)OC2=O)c1O [Compound 30, N-((3R,7S,8S,9R)-7,8-bis(benzyloxy)-9-methyl-2-oxo-1,5-dioxonan-3-yl)-3-hydroxy-4-methoxypicolinamide] | – | – | – | – | 0 to 80% | 0 to 80% | 0 to 80% | 0 to 80%
21 | COc1ccnc(C(=O)N[C@@H]2COC[C@H](OCc3ccccc3)[C@@H](OCc3ccccc3)[C@@H](C)OC2=O)c1OCOC(C)=O [Compound 31] | 0 to 80% | 0 to 80% | 0 to 80% | 0 to 80% | – | – | – | –
22 | CCCCO[C@H]1COC[C@H](NC(=O)c2nccc(OC)c2OCOC(C)=O)C(=O)O[C@@H](C)[C@@H]1OC [Compound 37] | 80 to 100% | 0 to 80% | 0 to 80% | 80 to 100% | – | – | – | –
23 | COc1ccnc(C(=O)N[C@H]2COC[C@@H](OCc3ccccc3)[C@H](OCc3ccccc3)[C@H](C)OC2=O)c1O [Compound 38] | 80 to 100% | 0 to 80% | 0 to 80% | 0 to 80% | – | – | – | –
24 | COc1ccnc(C(=O)N[C@H]2COC[C@H](OCC(C)C)[C@@H](Oc3cccc(Cl)c3)[C@H](C)OC2=O)c1O [Compound 194] | 80 to 100% | – | – | 80 to 100% | – | – | – | –
25 | COc1ccnc(C(=O)N[C@H]2COC[C@H](OCC(C)C)[C@@H](Oc3ccc(C(F)(F)F)cc3)[C@H](C)OC2=O)c1O [Compound 195] | 80 to 100% | – | – | – | – | – | – | –
26 | CCCO[C@H]1[C@H](C)OC(=O)[C@@H](NC(=O)c2nccc(OC)c2O)COC[C@@H]1Oc1ccc(C(F)(F)F)cc1 [Compound 197] | 80 to 100% | – | – | – | – | – | – | –
27 | COc1ccc(O[C@H]2COC[C@H](NC(=O)c3nccc(OC)c3O)C(=O)O[C@@H](C)[C@@H]2OC(=O)C(C)C)cc1 [Compound 200] | – | 0 to 80% | – | – | – | – | – | –
